How the values were obtained:
MAO A = biological target: T1, MAO A (Rattus norvegicus, UniProt P21396); assay: MAO A inhibition in dilute rat brain homogenate; format: biochemical; details: 14C-phenylethylamine or 14C-tryptamine 0.4 μmol/l, 37° C., 20 min
T1 construct: from tissue; host or cells: rat brain homogenate
T1 sequence (P21396 1-526): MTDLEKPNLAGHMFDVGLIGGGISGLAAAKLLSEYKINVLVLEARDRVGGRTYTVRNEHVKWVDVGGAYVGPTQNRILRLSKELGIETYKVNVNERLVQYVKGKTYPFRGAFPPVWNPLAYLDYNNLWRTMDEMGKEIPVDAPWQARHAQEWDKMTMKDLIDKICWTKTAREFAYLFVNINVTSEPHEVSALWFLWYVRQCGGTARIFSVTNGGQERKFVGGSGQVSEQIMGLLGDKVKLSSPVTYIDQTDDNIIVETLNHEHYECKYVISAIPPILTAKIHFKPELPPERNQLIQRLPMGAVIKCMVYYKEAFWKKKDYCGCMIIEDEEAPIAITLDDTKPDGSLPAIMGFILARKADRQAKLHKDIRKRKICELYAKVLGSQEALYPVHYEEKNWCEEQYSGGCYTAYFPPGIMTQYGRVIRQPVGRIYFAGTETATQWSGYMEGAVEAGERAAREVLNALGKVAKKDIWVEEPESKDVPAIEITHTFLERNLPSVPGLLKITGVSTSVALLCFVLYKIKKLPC
Experimental: (§1) The MAO-inhibiting activity of the compounds according to the invention can be determined using standard methods. Thus, monoamine oxidases A and B were determined in dilute rat brain homogenate to which test substances in various concentrations and ^14 C-phenylethylamine or ^14 C-tryptamine in a concentration of 0.4 μmol/l were added. This mixture was incubated at 37° C. for 20 min.
(§2) The reaction was then stopped with 0.1 normal HCl, and the products were determined after extraction in a toluene scintillator (PPO+POPOP in toluene). The blank was determined on a similar mixture with an incubation time of 0 min.
(§3) The median inhibitory concentration (IC50) was calculated by linear regression after logit-log transformation from the values for the inhibition at the various concentrations relative to the control.

MAO B = biological target: T2, MAO B (Rattus norvegicus, UniProt P19643); assay: MAO B inhibition in dilute rat brain homogenate; format: biochemical; details: 20 min; for IC50: dilute rat brain homogenate, 14C-phenylethylamine or 14C-tryptamine 0.4 μmol/l, 37° C.; for MAO A / MAO B IC50 ratio: selectivity for MAO B over MAO A, rat brain homogenate
T2 construct: from tissue; host or cells: rat brain homogenate
T2 sequence (P19643 1-520): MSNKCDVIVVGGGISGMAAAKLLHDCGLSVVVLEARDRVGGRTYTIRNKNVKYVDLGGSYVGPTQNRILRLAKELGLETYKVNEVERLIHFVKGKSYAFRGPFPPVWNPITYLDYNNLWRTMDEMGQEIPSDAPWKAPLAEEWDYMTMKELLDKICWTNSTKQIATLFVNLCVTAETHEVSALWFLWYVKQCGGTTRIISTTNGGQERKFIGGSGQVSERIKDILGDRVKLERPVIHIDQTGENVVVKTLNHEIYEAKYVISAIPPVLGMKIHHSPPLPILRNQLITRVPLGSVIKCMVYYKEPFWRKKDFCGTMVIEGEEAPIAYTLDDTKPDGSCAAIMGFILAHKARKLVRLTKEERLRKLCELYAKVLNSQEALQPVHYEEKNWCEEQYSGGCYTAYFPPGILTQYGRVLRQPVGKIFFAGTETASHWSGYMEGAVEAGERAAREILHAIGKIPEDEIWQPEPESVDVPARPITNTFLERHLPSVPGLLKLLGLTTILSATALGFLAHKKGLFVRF
Experimental: as §1, §2, §3

Compound | IC50 (MAO A) | IC50 (MAO B) | MAO A / MAO B IC50 ratio (MAO B)
Cc1nnc(COc2ccc3c(C)c(C)c(=S)oc3c2)o1 [Example 3, 3,4-Dimethyl-7-(2-methyl-1,3,4-oxadiazol-5-ylmethoxy)-2-thiocoumarin] | > 10000 nM | 10 nM | > 1000
Cc1c(C)c2ccc(OCc3csc(C(C)C)n3)cc2oc1=S [Example 2, 3,4-Dimethyl-7-(2-isopropylthiazol-4-ylmethoxy)-2-thiocoumarin] | > 10000 nM | 3 nM | > 3333
Cc1c(C)c2ccc(OCc3nnc(C(C)C)s3)cc2oc1=S [Example 1, 3,4-Dimethyl-7-(2-isopropyl-1,3,4-thiadiazol-5-ylmethoxy)-2-thiocoumarin] | > 10000 nM | 1 nM | > 10,000

Further lines, results first:

IC50 (MAO A) | IC50 (MAO B) | MAO A / MAO B IC50 ratio (MAO B) | Compound
≥ 10000 nM | 3 nM | > 3333 | CC(C)c1ccc(COc2ccc3ccc(=S)oc3c2)cc1 [Example 12, 7-(4-Isopropylbenzyloxy)-2-thiocoumarin]
> 10000 nM | 6 nM | > 1667 | Cc1c(C)c2cc(Cl)c(OCc3nnc(C4CC4)s3)cc2oc1=S [Example 14, 6-Chloro-3,4-dimethyl-7-(2-cyclopropyl-1,3,4-thiadiazol-5-ylmethoxy)-2-thiocoumarin]
> 10000 nM | 3 nM | > 3333 | Cc1c(C)c2cc(Cl)c(OCc3nnc(C(C)C)s3)cc2oc1=S [Example 13, 6-Chloro-3,4-dimethyl-7-(2-isopropyl-1,3,4-thiadiazol-5-ylmethoxy)-2-thiocoumarin]
≥ 10000 nM | 2 nM | > 5000 | CCCc1nnc(COc2ccc3c(C)c(C)c(=S)oc3c2)s1 [Example 4, 3,4-Dimethyl-7-(2-n-propyl-1,3,4-thiadiazol-5-ylmethoxy)-2-thiocoumarin]

Reference: patent US5414006A, “Arylalkoxythiocoumarins, the preparation thereof and therapeutic compositions containing these” (BASF Aktiengesellschaft, priority 1992, dated 1995)
